Results reported in patent publication US20090191144A1, “USE OF LIPID COMPONENTS AGAINST POLLEN ALLERGIES” (BEIERSDORF AG, priority 2008, published 2009).

Experiment: Viscosity of preferred lipids
Format: physicochemical

Compound	Viskosity (in mPas) (s^−1 = 500) [mPas]
CCCCCCCCCCCCCCCCCC(=O)OCCCC [Crodamol BS, Butyl Stearate]	100
CC(C)CCCCCCCCCCCCCCCOC(=O)CC(O)C(=O)OCCCCCCCCCCCCCCCC(C)C (centres unmarked) [DUB MDIS, Diisostearyl Malate]	113
CCCCCCCCCCC(CO)CCCCCCCC (centres unmarked) [Eutanol G, Octyldodecanol]	47.7
CCCCOCCOP(=O)(OCCOCCCC)OCCOCCCC [Hostaphat B 310, Tributoxyethylphosphate]	122
Pentaerythrityl Tetraisostearate [Crodamol PTIS 3797]	390
Pentaerythrityl Tetraisostearate [DUB PTIS]	57
Triisodecyl Trimelliate [DUB TMI]	111

Other lines, results leading:

Viskosity (in mPas) (s^−1 = 500) [mPas]	Compound
220	CC(C)CCCC(C)CCCC(C)CCCCC(C)CCCC(C)CCCC(C)C (centres unmarked) [Motif, Squalan]
116	CCCCC(CC)C(=O)OCC(COC(=O)C(CC)CCCC)(COC(=O)C(CC)CCCC)COC(=O)C(CC)CCCC (centres unmarked) [Trivent PE 48, Pentaerythrityl Tetraethylhexanoate]
65	Hydroxystearate Glycerol Triacetyle
110	PEG-2 Diethylhexanoate [Dermol 488]
116	Tridecyl Trimellitate [DUB TMTD]
67	Triisononanoin [Isodragol]
99	Triisostearin [Prisorine 2041 GTIS]
